In ChEMBL document CHEMBL1201862, “PubChem BioAssay data set” (2004):
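Exposure lasted 48 hours, with cells grown in 96-well plates and compounds tested at five concentrations. At the GI50, growth is halved.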 Active and inactive are the calls of the source. Rule as the data show it: active = GI50 up to about 1.1 µM and inactive = higher.

Assays:
Assay in all cases: inhibition of tumour cell growth, NCI panel, 48 h
Hs-578T = system: Hs-578T
SK-MEL-28 = system: SK-MEL-28
OVCAR-5 = system: OVCAR-5
HT-29 = system: HT-29
MCF7 = system: MCF7
A549 = system: A549
MDA-N = system: MDA-N
RXF 393 = system: RXF 393
COLO 205 = system: COLO 205
M14 = system: M14
BT-549 = system: BT-549
IGROV-1 = system: IGROV-1
HOP-62 = system: HOP-62
MOLT-4 = system: MOLT-4
MDA-MB-231 = system: MDA-MB-231
SW-620 = system: SW-620
CCRF-CEM = system: CCRF-CEM
HCT-116 = system: HCT-116
NCI-H23 = system: NCI-H23
SR = system: SR

Structure (SMILES)	GI50 (Hs-578T)	GI50 (SK-MEL-28)	GI50 (OVCAR-5)	GI50 (HT-29)	GI50 (MCF7)	GI50 (A549)	GI50 (MDA-N)	GI50 (RXF 393)	GI50 (COLO 205)	GI50 (M14)	GI50 (BT-549)	GI50 (IGROV-1)	GI50 (HOP-62)	GI50 (MOLT-4)	GI50 (MDA-MB-231)	GI50 (SW-620)	GI50 (CCRF-CEM)	GI50 (HCT-116)	GI50 (NCI-H23)	GI50 (SR)
CCCCCCCCCC(=O)OCC1(CO)C/C(=C/CC(C(C)C)C(C)C)C(=O)O1 (stereo not given)	27 µM (inactive)	71.3 µM (inactive)	64.9 µM (inactive)	31.6 µM (inactive)	59 µM (inactive)	26.6 µM (inactive)	87.1 µM (inactive)	> 100 µM (inactive)	9.18 µM (inactive)	51.2 µM (inactive)	> 100 µM (inactive)	37.7 µM (inactive)	30 µM (inactive)	14.5 µM (inactive)	51.3 µM (inactive)	26.9 µM (inactive)	14.9 µM (inactive)	33.5 µM (inactive)	> 100 µM (inactive)	26.2 µM (inactive)
O=[N+]([O-])/C=C/c1cc2ccc3ccccc3c2[nH]1	3.56 µM (inactive)	2.01 µM (inactive)	2.29 µM (inactive)	2.19 µM (inactive)	1.44 µM (inactive)	2.16 µM (inactive)	1.67 µM (inactive)	1.43 µM (inactive)	1.75 µM (inactive)	1.64 µM (inactive)	1.89 µM (inactive)	0.527 µM (active)	1.98 µM (inactive)	0.776 µM (active)	1.43 µM (inactive)	1.49 µM (inactive)	0.299 µM (active)	1.52 µM (inactive)	2.02 µM (inactive)	0.555 µM (active)
CCOC(=O)C1(Cc2ccc(C)cc2)Cc2ccc(C)cc2C1=O (stereo not given)	16.3 µM (inactive)	20.2 µM (inactive)	52.5 µM (inactive)	5.43 µM (inactive)	6.52 µM (inactive)	20.9 µM (inactive)	2.38 µM (inactive)	4.6 µM (inactive)	11.7 µM (inactive)	9.59 µM (inactive)	10 µM (inactive)	21.1 µM (inactive)	21.1 µM (inactive)	4.23 µM (inactive)	16.5 µM (inactive)	4.71 µM (inactive)	8.05 µM (inactive)	6.73 µM (inactive)	18.5 µM (inactive)	3.61 µM (inactive)
COC(=O)Nc1nc(=O)c2ccccc2[nH]1	76.7 µM (inactive)	> 100 µM (inactive)	> 100 µM (inactive)	> 100 µM (inactive)	> 100 µM (inactive)	0.0775 µM (active)	19.5 µM (inactive)	36.8 µM (inactive)	> 100 µM (inactive)	> 100 µM (inactive)	> 100 µM (inactive)	> 100 µM (inactive)	> 100 µM (inactive)	> 100 µM (inactive)	> 100 µM (inactive)	79.6 µM (inactive)	> 100 µM (inactive)	48.8 µM (inactive)	> 100 µM (inactive)	> 100 µM (inactive)
COC(=O)C1=C(C(=O)OC)SC(=C2SCSC3=C2SC(C(=O)OC)=C(C(=O)OC)C32SC3=C(CCCC3)S2)S1	> 100 µM (inactive)	> 100 µM (inactive)	> 100 µM (inactive)	> 100 µM (inactive)	> 100 µM (inactive)	> 100 µM (inactive)	> 100 µM (inactive)	19.4 µM (inactive)	> 100 µM (inactive)	> 100 µM (inactive)	> 100 µM (inactive)	> 100 µM (inactive)	> 100 µM (inactive)	> 100 µM (inactive)	95.3 µM (inactive)	> 100 µM (inactive)	> 100 µM (inactive)	> 100 µM (inactive)	> 100 µM (inactive)	> 100 µM (inactive)
C=CCN1C(=O)/C(=C/c2ccc(C)cc2)N=C1SC/C=C/C	21.8 µM (inactive)	50.6 µM (inactive)	43.6 µM (inactive)	29.1 µM (inactive)	29.4 µM (inactive)	21 µM (inactive)	22.8 µM (inactive)	11.5 µM (inactive)	36.5 µM (inactive)	45.6 µM (inactive)	30.4 µM (inactive)	51.6 µM (inactive)	> 100 µM (inactive)	14.8 µM (inactive)	51.5 µM (inactive)	39.4 µM (inactive)	26.7 µM (inactive)	18.8 µM (inactive)	31.1 µM (inactive)	17.2 µM (inactive)
CC1=C(C(=O)OC(C)C)C(c2cccc([N+](=O)[O-])c2)C(C(=O)OC(CO[N+](=O)[O-])CO[N+](=O)[O-])=C(C)N1 (stereo not given)	3.51 µM (inactive)	11.4 µM (inactive)	6.71 µM (inactive)	3.21 µM (inactive)	0.61 µM (active)	3.37 µM (inactive)	2.83 µM (inactive)	7.52 µM (inactive)	2.93 µM (inactive)	3.56 µM (inactive)	2.67 µM (inactive)	4.75 µM (inactive)	3.85 µM (inactive)	1.85 µM (inactive)	3.59 µM (inactive)	4.14 µM (inactive)	1.92 µM (inactive)	2.66 µM (inactive)	5.37 µM (inactive)	3.22 µM (inactive)
CC(=O)N(C(C)=O)c1cc2c3c(c1)CCCN3CCC2	> 10 µM (inactive)	> 10 µM (inactive)	> 10 µM (inactive)	> 10 µM (inactive)	> 10 µM (inactive)	> 10 µM (inactive)	> 10 µM (inactive)	> 10 µM (inactive)	> 10 µM (inactive)	> 10 µM (inactive)	> 10 µM (inactive)	> 10 µM (inactive)	> 10 µM (inactive)	> 10 µM (inactive)	> 10 µM (inactive)	> 10 µM (inactive)	> 10 µM (inactive)	> 10 µM (inactive)	> 10 µM (inactive)	> 10 µM (inactive)
COC(=O)/C=C(\S/C(=C(/c1ccccc1)n1cc(C(=O)OC)c(C(=O)OC)n1)c1ccccc1)C(=O)OC	33.3 µM (inactive)	20.7 µM (inactive)	18.7 µM (inactive)	3.33 µM (inactive)	5.26 µM (inactive)	23.9 µM (inactive)	17.1 µM (inactive)	13.6 µM (inactive)	1.74 µM (inactive)	12.9 µM (inactive)	38.5 µM (inactive)	17.7 µM (inactive)	16 µM (inactive)	2.31 µM (inactive)	22 µM (inactive)	2.37 µM (inactive)	3.12 µM (inactive)	12.1 µM (inactive)	18.1 µM (inactive)	11.6 µM (inactive)
CCOC(=O)C1=C(C)C(C(=O)OC)/C(=C/c2cccc3cccnc23)C1=O (stereo not given)	> 10 µM (inactive)	> 10 µM (inactive)	> 10 µM (inactive)	> 10 µM (inactive)	4.76 µM (inactive)	> 10 µM (inactive)	> 10 µM (inactive)	> 10 µM (inactive)	> 10 µM (inactive)	> 10 µM (inactive)	> 10 µM (inactive)	> 10 µM (inactive)	> 10 µM (inactive)	> 10 µM (inactive)	> 10 µM (inactive)	> 10 µM (inactive)	> 10 µM (inactive)	> 10 µM (inactive)	> 10 µM (inactive)	> 10 µM (inactive)
